# Measured values published in ChEMBL document CHEMBL5465560, “Selectivity Literature for EUbOPEN Chemogenomic Library” (2024).
# Tests used:
# [1] = molecular target: Death-associated protein kinase 3 (Homo sapiens) (UniProt O43293); conditions: at 10 µM
# [2] = molecular target: T1, Membrane-associated tyrosine- and threonine-specific cdc2-inhibitory kinase (Homo sapiens) (UniProt Q99640); experiment: Selectivity interaction (KinomeScan (DiscoverX)) EUB0001079a PKMYT1; conditions: at 1 µM
# T1 sequence (whole entry): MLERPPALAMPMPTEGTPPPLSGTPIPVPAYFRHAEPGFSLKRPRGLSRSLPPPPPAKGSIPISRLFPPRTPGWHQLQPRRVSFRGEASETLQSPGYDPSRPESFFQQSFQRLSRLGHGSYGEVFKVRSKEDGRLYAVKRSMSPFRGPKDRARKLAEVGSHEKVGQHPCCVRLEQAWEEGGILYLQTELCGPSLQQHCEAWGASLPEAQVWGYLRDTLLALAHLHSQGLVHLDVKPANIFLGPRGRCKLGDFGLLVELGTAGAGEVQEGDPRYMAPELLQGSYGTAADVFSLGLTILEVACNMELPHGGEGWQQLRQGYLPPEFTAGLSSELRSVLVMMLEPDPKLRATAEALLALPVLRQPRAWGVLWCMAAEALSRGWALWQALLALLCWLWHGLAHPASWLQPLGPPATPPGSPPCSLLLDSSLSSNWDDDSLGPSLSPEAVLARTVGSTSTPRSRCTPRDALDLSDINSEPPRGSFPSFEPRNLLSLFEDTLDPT
# [3] = molecular target: Casein kinase I isoform gamma-3 (Homo sapiens) (UniProt Q9Y6M4); experiment: Selectivity interaction (Kinase panel (Z-LYTE Assay)) EUB0001632a CSNK1G3; conditions: at 10 µM
# Chain of Casein kinase I isoform gamma-3 (Homo sapiens) (Q9Y6M4 whole entry, looked up, canonical isoform): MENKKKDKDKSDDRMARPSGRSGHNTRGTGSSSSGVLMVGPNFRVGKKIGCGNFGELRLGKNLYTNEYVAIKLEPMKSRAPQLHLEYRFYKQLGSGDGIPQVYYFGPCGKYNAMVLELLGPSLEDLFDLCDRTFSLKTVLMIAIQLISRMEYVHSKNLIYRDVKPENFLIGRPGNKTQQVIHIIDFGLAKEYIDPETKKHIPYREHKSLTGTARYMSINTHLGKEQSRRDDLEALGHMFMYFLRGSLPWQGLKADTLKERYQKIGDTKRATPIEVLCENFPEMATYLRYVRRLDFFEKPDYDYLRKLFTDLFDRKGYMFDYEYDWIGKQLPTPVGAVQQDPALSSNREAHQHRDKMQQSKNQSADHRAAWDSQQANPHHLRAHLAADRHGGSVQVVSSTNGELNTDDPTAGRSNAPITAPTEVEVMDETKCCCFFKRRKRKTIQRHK
# [4] = molecular target: T2, Serine/threonine-protein kinase BRSK1 (Homo sapiens) (UniProt Q8TDC3); conditions: at 10 µM
# T2 sequence (whole entry): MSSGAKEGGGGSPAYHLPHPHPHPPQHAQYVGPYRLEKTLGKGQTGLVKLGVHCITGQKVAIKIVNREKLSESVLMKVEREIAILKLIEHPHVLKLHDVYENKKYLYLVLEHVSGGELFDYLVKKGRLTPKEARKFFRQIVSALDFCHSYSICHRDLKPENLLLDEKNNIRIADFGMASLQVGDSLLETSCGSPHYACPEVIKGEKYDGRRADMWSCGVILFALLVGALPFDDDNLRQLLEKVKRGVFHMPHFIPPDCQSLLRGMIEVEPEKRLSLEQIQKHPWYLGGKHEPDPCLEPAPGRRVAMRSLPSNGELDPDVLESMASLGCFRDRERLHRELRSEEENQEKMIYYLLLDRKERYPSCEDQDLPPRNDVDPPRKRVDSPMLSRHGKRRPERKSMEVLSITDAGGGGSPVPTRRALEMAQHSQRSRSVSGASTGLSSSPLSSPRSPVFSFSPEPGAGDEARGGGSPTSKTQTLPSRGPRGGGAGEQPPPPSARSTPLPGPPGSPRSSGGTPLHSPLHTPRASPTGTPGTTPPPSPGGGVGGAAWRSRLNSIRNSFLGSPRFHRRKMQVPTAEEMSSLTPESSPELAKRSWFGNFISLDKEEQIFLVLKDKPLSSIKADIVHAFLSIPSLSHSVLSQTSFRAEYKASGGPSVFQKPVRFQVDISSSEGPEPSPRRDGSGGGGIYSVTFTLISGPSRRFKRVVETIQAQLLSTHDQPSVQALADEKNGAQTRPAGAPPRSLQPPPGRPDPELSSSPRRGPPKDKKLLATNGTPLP
# [5] = molecular target: T3, Tyrosine-protein kinase Tec (Homo sapiens) (UniProt P42680); experiment: Selectivity interaction (ActivX KiNativ screen (kinase selectivity in THP-1 cell lysates)) EUB0000639a TEC; format: subcellular; conditions: lysate, at 0.04 µM
# T3 sequence (whole entry): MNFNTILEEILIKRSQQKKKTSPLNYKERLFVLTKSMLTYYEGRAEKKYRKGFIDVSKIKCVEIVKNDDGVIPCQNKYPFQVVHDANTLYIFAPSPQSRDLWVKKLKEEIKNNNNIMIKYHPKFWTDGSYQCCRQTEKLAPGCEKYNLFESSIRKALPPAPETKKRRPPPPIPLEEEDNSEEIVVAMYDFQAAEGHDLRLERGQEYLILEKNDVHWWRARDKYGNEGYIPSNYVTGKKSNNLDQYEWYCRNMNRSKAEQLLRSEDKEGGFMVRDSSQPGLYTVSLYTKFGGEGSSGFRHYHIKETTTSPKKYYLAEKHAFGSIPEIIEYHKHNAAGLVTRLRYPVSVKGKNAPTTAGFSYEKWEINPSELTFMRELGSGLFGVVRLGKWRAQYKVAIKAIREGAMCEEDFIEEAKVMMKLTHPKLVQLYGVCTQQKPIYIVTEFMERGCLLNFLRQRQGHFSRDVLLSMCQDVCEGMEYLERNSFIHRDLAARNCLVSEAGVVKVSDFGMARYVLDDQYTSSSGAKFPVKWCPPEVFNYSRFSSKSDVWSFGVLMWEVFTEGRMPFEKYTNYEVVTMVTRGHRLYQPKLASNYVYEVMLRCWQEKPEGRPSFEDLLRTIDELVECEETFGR
# [6] = molecular target: Serine/threonine-protein kinase 25 (Homo sapiens) (UniProt O00506); experiment: Selectivity interaction (KinomeScan (DiscoverX)) EUB0000699a STK25; conditions: at 10 µM
# Chain of Serine/threonine-protein kinase 25 (Homo sapiens) (O00506 whole entry, looked up): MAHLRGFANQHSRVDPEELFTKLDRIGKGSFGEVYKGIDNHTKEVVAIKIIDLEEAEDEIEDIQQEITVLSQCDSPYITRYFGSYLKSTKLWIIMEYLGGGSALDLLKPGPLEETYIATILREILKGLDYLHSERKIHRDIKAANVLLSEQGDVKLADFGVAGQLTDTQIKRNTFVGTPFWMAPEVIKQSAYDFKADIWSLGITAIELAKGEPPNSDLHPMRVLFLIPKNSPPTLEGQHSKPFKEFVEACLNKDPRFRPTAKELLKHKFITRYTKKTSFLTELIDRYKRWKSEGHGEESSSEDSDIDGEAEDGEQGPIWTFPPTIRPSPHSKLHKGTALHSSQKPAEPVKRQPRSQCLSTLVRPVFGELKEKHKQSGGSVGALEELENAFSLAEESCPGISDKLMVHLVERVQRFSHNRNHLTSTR
# Chain of Death-associated protein kinase 3 (Homo sapiens) (O43293 whole entry, looked up): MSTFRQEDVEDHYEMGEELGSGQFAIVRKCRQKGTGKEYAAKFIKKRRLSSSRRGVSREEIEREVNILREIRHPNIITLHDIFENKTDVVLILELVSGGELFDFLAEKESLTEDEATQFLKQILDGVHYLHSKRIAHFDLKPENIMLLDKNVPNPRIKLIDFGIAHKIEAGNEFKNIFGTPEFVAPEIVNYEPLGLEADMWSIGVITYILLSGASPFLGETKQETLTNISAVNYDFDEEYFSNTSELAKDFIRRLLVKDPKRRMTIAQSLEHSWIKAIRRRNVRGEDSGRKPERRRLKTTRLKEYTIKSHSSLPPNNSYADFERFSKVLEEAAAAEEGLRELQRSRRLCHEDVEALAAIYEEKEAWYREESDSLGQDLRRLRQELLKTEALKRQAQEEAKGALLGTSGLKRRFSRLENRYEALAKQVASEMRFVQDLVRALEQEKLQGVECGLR
compound,measurement,setting,value
COCC(=O)NC/C=C/c1ccc2ncnc(Nc3ccc(Oc4ccc(C)nc4)c(C)c3)c2c1 [CP-724714],% of control,[1],96%
Nc1cnc(N2CCc3cc(S(=O)(=O)Nc4c(F)cc(Cl)cc4F)cc(N4CCCC4=O)c32)nc1 [TP-020n],% of control,[2],99%
Cn1cc(-n2cnc3c(NCc4nc5cc(Cl)c(Cl)cc5[nH]4)nc(N4CCOCC4)nc32)cn1,% of control,[3],6.17%
Cc1cc([C@@H](C)Nc2ccccc2C(=O)O)c2nc(N3CCOCC3)cc(=O)n2c1 [AZD-6482],% of control,[4],99%
CC[C@@H]1[C@H](F)C(=O)N[C@@H]1COc1nccc2cc(C(N)=O)c(OC)cc12 [ZIMLOVISERTIB],% of inhibition,[5],-59.8%
CCN(CC)CCCCNc1ncc2cc(-c3cc(OC)cc(OC)c3)c(NC(=O)NC(C)(C)C)nc2n1,% of control,[6],9.4%
